Assay results taken from a melting point compilation (Tetko et al.; mined from patent text by program, amines drawn as free bases though some values may be those of a salt).

Row | Compound | melting point
1 | O=C1C(c2c[nH]c3ccccc23)=C(c2c[nH]c3ccccc23)C(=O)N1Cc1ccccc1 | > 290 °C
2 | Cc1cc(C(F)(F)F)cc(=O)n1C | 80 to 82 °C
3 | CCC(COC)NC(=O)C(Cc1ccc(OCc2ccccc2)cc1)NC(=O)C(CC(C)C)N(C)Cc1ccc(C(C)(C)C)cc1 (stereo not drawn) | 118 to 120 °C
4 | Cc1cc(C)c2c(c1C)OCC2=O | 92 to 93 °C
5 | COC(=O)c1c2c(c3cc(OC)c(OC)c(OC)c3c1-c1cc(OC)c(OC)c(OC)c1)OCOC2=O | 165 to 167 °C
6 | Cc1cc(C2=NOC(c3cc(Cl)cc(Cl)c3)(C(F)(F)F)C2)ccc1C(=O)O (stereo not drawn) | 146 to 148 °C
7 | CCC(CC)C(NS(=O)(=O)c1cc(Cl)c(Cl)s1)c1ccnn1-c1ccccc1 (stereo not drawn) | 116 to 120 °C
8 | CC(C)(C)C(O)(Cn1cncn1)C(Br)=C(Cl)Br (stereo not drawn) | 78 to 81 °C
9 | CCOC(=O)NNC(C)=S | 54 to 57.5 °C
10 | CC1CCC(=O)N1CC(=O)NCCN(C(C)C)C(C)C (stereo not drawn) | 73 to 74 °C
11 | COc1ccc(C(=O)Nc2c(Cl)cncc2Cl)c2[nH]c(C(F)(F)F)nc12 | 300 to 301 °C
12 | CCc1c(OC)c(C)c(OC)c2c1C(=O)N(CSc1nnnn1-c1ccccc1)S2(=O)=O | 44 to 46 °C
13 | COc1cc(OC)cc(-c2nc[nH]c2-c2ccc(OC)c(N)c2O)c1 | 132 to 134 °C
14 | CNC1Cc2ccccc2C1Nc1ccc(Cc2ccccc2)cc1 (stereo not drawn) | 137 to 138 °C
15 | CCCCc1ncc(C(=O)OC)c(=O)[nH]1 | 153 to 155 °C
16 | O=C(O)c1cn(C2CC2)c2c(F)c(F)c(F)c(F)c2c1=O | 179 to 180 °C
17 | Cc1nnc2c(-c3ccccc3)nccn12 | 178 to 180 °C
18 | O=C1SC(Cc2ccc(OCCON=Cc3ccc4ccccc4n3)cc2)C(=O)N1C(c1ccccc1)(c1ccccc1)c1ccccc1 (stereo not drawn) | 127 to 130 °C
19 | CNC(=O)NS(=O)(=O)c1ccccc1CCC(F)(F)F | 176 to 177 °C
20 | Cc1cc(C)n(CC(C)C)c(=O)c1C(=O)O | 93 to 95 °C
21 | CC(Cc1ccc2c(c1)OCO2)C(=O)O (stereo not drawn) | 121 °C
22 | CC(=O)CC(=S)Nc1ccccc1 | 125 °C
23 | COC(CCOc1cc(C)ccc1C)C(C)(C)C(=O)O (stereo not drawn) | 76 to 77 °C
24 | COc1ccc(Nc2nc(NC3CC3)nc(NC3CC3)n2)cc1F | 91 to 92 °C
25 | Cc1c(C2CCCC2)c(=O)oc2cc(OCc3nnn[nH]3)cc(OCc3nnn[nH]3)c12 | 248 to 252 °C

Row | Compound | melting point
26 | C=C(Cc1ccccc1)C(=O)O | 61 to 62 °C
27 | Cc1cccc2[nH]nnc12 | 145 to 146 °C
28 | COC(=O)C1=C(C)NC(C)=C(C(=O)OC)C1c1cc([N+](=O)[O-])ccc1OCCCCNCC(O)COc1ccc(OC)cc1 (stereo not drawn) | 154 to 155 °C
29 | OC(CCN1CC=C(c2ccccc2)CC1)c1cccc2ccccc12 (stereo not drawn) | 93 to 94 °C
30 | CCOC(=O)c1c2ccc(CC(=O)NOCCCN(CC)CC)ccc-2c(C(=O)OCC)c1N | 125 to 127 °C
31 | CCC1(CC)c2cc(CBr)c(CBr)cc2C(CC)(CC)N1Cc1ccccc1 | 164 to 166 °C
32 | OCCC1CCc2cc3ccccc3n2C1 (stereo not drawn) | 70 to 72 °C
33 | CC(=O)Oc1ccc(C2COc3c(ccc(OC(C)=O)c3C)C2O)cc1 (stereo not drawn) | 135 to 137 °C
34 | C#Cc1cn(C2CC(OC(=O)C(C)(C)C)C(COC(=O)C(C)(C)C)O2)c(=O)[nH]c1=O (stereo not drawn) | 151 °C
35 | COc1ccccc1COc1ccc(S(=O)(=O)c2ccc(C)nc2Nc2ccc(OC(F)F)cc2Cl)cc1 | 124 to 125 °C
36 | CCOC(=O)CNc1nc(C)c(C(=O)OCC)c(NC(C)CC)c1[N+](=O)[O-] (stereo not drawn) | 43 to 45 °C
37 | CNS(=O)(=O)c1cc(C)oc1CC(=O)O | 112 to 113 °C
38 | CCCC1N=Cc2cc(Cl)nc(=O)n21 (stereo not drawn) | 194 to 196 °C
39 | COc1ccccc1Sc1c(O)nc[nH]c1=O | 291 °C
40 | CN(CCc1ccccn1)C(=O)CCSc1cc(Cl)c(O)c(Cl)c1 | 120 to 123 °C
41 | CN1CCC(c2c[nH]c3ccc(O)cc23)CC1 | 234 to 237 °C
42 | CN(C)C=NS(=O)(=O)c1cc(CCNC(=O)C(F)(F)F)ccc1O | 160 to 161 °C
43 | O=C1NN(C(=O)Nc2ccc(OCc3ccccc3)cc2)C(c2ccccc2)C1c1ccccc1 (stereo not drawn) | 127 to 130 °C
44 | COc1cn(-c2ccccc2F)nc(-c2ccnn2-c2ccccc2)c1=O | 163 to 165 °C
45 | C=CCC(C(O)=Nc1cc(Cl)cc(Cl)c1)C(C)C(=O)O (stereo not drawn) | 131 °C
46 | CCn1cc(C(=O)O)c(=O)c2c1CCCC2=O | 212 to 214 °C
47 | CCn1cc(-c2ccccc2)nc(S(=O)(=O)Cc2ccc(Cl)cc2)c1=O | 146 to 148 °C
48 | CC(=O)Nc1c(SC(F)(F)F)c(C#N)nn1-c1c(Cl)cc(C(F)(F)F)cc1Cl | 217 to 218 °C
49 | CC(=O)NCc1nnc(S)s1 | 200 to 203 °C

Results, then the molecule that gave them:

Row | melting point | Compound
50 | 100 °C | COc1ccccc1N1CCN(CCCOC(=O)Cc2csc(NC(=O)c3ccc(F)cc3)n2)CC1
51 | 131 to 136 °C | COc1cc(C(=O)NS(=O)(=O)c2ccccc2Cl)ccc1Cc1cn(C)c2ccc(CC(C)NC(=O)N(C)C)cc12 (stereo not drawn)
52 | 135 to 136 °C | COC(=O)c1ccc2scc(-c3ccc(SC)cc3)c2c1
53 | 189 to 191 °C | O=C(CC1CCCCC1)Nc1ccc2oc3c(c2c1)CCCC3
54 | 92 to 94 °C | COC(=O)c1nc(-c2ccccc2)ccc1Oc1nc(OC)cc(OC)n1
55 | 161 to 163 °C | CCOC(=O)COc1ccc2ncnc(Nc3ccc(F)c(Cl)c3)c2c1
56 | 164 to 166 °C | CC(=O)Nc1nc(CCc2ccc(CN3CCNCC3)cc2)cs1
57 | 300 to 305 °C | Oc1ccc(-c2noc3cc(O)ccc23)c(O)c1
58 | 112 to 115 °C | N#Cc1cnc2ccc(NC(=O)C#CCN3CCOCC3)cc2c1Nc1cccc(Br)c1
59 | 100 to 102 °C | N#Cc1ccc2c(c1)c(-c1ccccc1)nn2CCCBr
60 | 118 to 120 °C | CC(C)N1Cc2cc(S(C)(=O)=O)ccc2N(CCN2CC=C(c3c[nH]c4cc(F)ccc34)CC2)S1(=O)=O
61 | 155 to 157 °C | Cc1ccc(C(=O)c2c(Br)cc(CC(=O)O)n2C)cc1
62 | 161 to 162 °C | O=C(c1ccc(F)cc1)c1ccc2n1CCCC2C(=O)O (stereo not drawn)
63 | 155 to 156 °C | CC(C)(C)c1cc(CCc2ccccc2NC(=O)N2CCN(c3ccccc3)CC2)cc(C(C)(C)C)c1O
64 | 200 to 203 °C | COc1ccc(C(=O)Nc2nc3ccc(N)cc3c(NCc3cccs3)c2C#N)cc1
65 | 112 to 115 °C | CC(C)C(=O)Nc1ccc(S(=O)(=O)c2ccc(F)cc2)cc1
66 | 126 to 128 °C | CC(C)(CNc1ccc(C2=NNC(=O)CC2)cc1)NCC(O)COc1ccccc1C#N (stereo not drawn)
67 | 130 to 132 °C | O=C1NCCc2c1c1cccc(F)c1n2COCc1ccccc1
68 | 174 to 176 °C | Oc1cc(O)c2c(c1)Oc1ccc(Br)cc1CC2
69 | 125 to 130 °C | CCOC(=O)c1cnn(-c2cc(C(=O)Nc3cc(C(C)(C)C)cc(NS(C)(=O)=O)c3OC)ccc2C)c1
70 | 98 to 114 °C | Cc1nc(C)c(C(=O)Nc2ccc(-n3nc(C4CC4)cc3C3CC3)cc2)s1
71 | 240 to 242 °C | COc1cc(COc2cccc(CC(=O)O)c2-c2cccc(C(=O)O)c2)ccc1C12CC3CC(CC(C3)C1)C2
72 | 326 to 327 °C | O=C(O)c1cnc2n(c1=O)CCc1ccc(O)cc1-2
73 | 128 to 131 °C | COC(=O)c1ccc(-c2ccc(OC)c(OC3CCCC3)c2)cc1
74 | 209 to 211 °C | CC1c2ccccc2-c2sc(Br)cc2N1S(=O)(=O)c1ccc(O)cc1 (stereo not drawn)

Row | melting point | Compound
75 | 241 to 243 °C | CCN1CCN(Cc2ccc(-c3cc4c(NCc5cccc(Cl)c5)ncnc4[nH]3)cc2)CC1
76 | 142 to 151 °C | CCCN(CCC)c1nccc2ccc(C(=O)N[C@@H](Cc3cc(F)cc(F)c3)[C@H](O)CNCc3cccc(CC)c3)cc12
77 | 130 to 131 °C | O=C(CCc1oc(-n2ccnc2)nc1-c1ccc(Cl)cc1)NCCCl
78 | 215 to 218 °C | CCc1cccc(CC)c1NC(=O)NC1(c2ccccc2)CCCC1
79 | 168 to 170 °C | COC(=O)c1ccc2oc3c(c(=O)c2c1)CCCC3=Cc1ccccc1
80 | 45 to 55 °C | NC(Cc1c[nH]c2ccccc12)C(=O)Nc1c(F)cc(F)cc1F (stereo not drawn)
81 | 170 to 171 °C | COc1ccc(-c2c(Cl)c(CN3C(=O)CCC3=O)nc3sc4c(c23)CCC(C(=O)N2CCOCC2)C4)cc1 (stereo not drawn)
82 | 163 to 165 °C | Cc1cccc(C(O)C2C(c3ccccc3)CC(=O)N2C)c1 (stereo not drawn)
83 | 227 to 230 °C | N#Cc1cc(C2=Nc3ccc(C4CC4)cc3NC(=O)C2)ccn1
84 | 233 to 235 °C | O=C(c1cc(C(F)(F)F)cc(C(F)(F)F)c1)N1CCC2(CC1)C(=O)NCN2c1ccc(Cl)cc1
85 | 142 to 143 °C | COC(=O)c1ccc(-c2nnc(-c3ccc(C(C)(C)C)cc3)o2)c([N+](=O)[O-])c1
86 | 116 to 117 °C | O=C(c1ccc(S)cc1)c1ccc([N+](=O)[O-])cc1
87 | 110 °C | COc1ccc(CN2CCc3nc(-c4ccccc4)c4c(c3C2)CO[C@@H](C)C4)cc1
88 | 198 °C | CC(C)(C)OC(=O)Nc1cc(CO)c(C#Cc2ccc(F)cc2)cc1[N+](=O)[O-]
89 | 101 to 103 °C | COc1ccc2c(c1)N(CCCN1CCC(CCO)CC1)c1cccc(SC)c1S2
90 | 120 to 122 °C | O=C(NCCCN1CCOCC1)c1ccccc1C(c1ccc(O)cc1)c1ccc(O)cc1
91 | > 240 °C | N#CC1=C(C2CCCN2)Nc2n[nH]cc2C1c1cccc2nonc12 (stereo not drawn)
92 | 160 to 162 °C | CN1CCN(c2cc3c(cc2F)c(=O)n(O)c(=O)n3-c2ccccc2F)CC1
93 | 183 to 186 °C | Nc1nc2ccccc2c2c1nc(CO)n2CCCCNC(=O)C1CCCC1
94 | 145 to 148 °C | COc1ccc(N2CCN(c3c(C)c(C)c4c(c3C)CC(C)(CN(C)C)O4)CC2)cc1 (stereo not drawn)
95 | 134 to 135 °C | Cc1oc(-c2ccccc2)nc1COc1cccc(CCCC2OC(=O)NC2=O)c1 (stereo not drawn)
96 | 154 °C | CS(=O)(=O)c1ccc(-c2cc3n(c2-c2ccc(F)cc2)CCC3)cc1
97 | 214 to 215 °C | CC(C)(C)OC(=O)N1CCn2c(c(C(N)=O)c(C#N)c2-c2ccccc2)C1
98 | 171 to 173 °C | O=C(NO)c1ccccc1Nc1c(Cl)cccc1Cl
